US7795235B2, “Semi-soft c-class immunostimulatory oligonucleotides” (Coley Pharmaceutical GmbH, priority 2004, dated 2010)
Oligonucleotides are written 5' to 3', each unit as a sugar letter and its base; * is a phosphorothioate linkage, no mark a phosphodiester; rarer units and linkages stand in square brackets, end groups in braces. Plain capitals give the bases only. d = 2'-deoxy (DNA)

Legend:
human TLR9 = molecular target: T1, human TLR9 (Homo sapiens, UniProt Q9NR96); assay: Stimulation of TLR9-transfected cells in vitro (luciferase readout); type: cell-based; conditions: quotient between highest value of all concentrations tested and medium control
T1 construct: expressed in transfected cells; host or cells: HEK 293
T1 sequence (Q9NR96 26-1032): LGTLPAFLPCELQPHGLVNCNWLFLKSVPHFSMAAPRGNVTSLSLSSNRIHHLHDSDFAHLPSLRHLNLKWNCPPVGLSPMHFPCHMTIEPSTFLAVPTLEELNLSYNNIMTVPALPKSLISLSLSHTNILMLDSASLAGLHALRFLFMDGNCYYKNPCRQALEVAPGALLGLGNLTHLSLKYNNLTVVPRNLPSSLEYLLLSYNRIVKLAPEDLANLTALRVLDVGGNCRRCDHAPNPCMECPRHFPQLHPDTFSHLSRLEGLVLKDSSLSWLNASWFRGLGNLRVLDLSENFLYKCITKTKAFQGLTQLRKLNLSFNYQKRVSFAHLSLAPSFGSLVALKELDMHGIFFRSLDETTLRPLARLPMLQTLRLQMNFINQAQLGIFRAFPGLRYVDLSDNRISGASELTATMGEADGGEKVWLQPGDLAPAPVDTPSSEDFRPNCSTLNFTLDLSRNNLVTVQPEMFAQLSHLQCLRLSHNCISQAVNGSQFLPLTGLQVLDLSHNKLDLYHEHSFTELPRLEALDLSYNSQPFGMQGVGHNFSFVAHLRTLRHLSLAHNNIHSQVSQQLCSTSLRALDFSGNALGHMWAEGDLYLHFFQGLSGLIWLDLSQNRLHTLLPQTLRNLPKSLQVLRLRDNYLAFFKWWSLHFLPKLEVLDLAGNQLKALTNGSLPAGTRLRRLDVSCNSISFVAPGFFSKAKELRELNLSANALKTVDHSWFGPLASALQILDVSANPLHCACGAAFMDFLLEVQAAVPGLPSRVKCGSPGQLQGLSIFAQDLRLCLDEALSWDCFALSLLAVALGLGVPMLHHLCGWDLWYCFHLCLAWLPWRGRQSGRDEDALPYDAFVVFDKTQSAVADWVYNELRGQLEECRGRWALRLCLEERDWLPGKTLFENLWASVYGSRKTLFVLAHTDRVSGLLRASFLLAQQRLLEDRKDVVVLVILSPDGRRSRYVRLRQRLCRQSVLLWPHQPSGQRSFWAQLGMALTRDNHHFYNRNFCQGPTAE
Protocol: Methods: HEK 293 cells transfected with human TLR9 were incubated with SEQ ID NO:1, SEQ ID NO:2, SEQ ID NO:3, SEQ ID NO:4, SEQ ID NO:5, or SEQ ID NO:6 for 16 hours. The signal was determined by a luciferase readout.
The EC50 was calculated using Sigma Plot (SigmaPlot 2002 for Windows version 8.0). The maximal stimulation index (max SI) was calculated as the quotient between the highest value of all concentrations tested for any ODN and the medium control.

BALB/c mice [1] = assay: Antigen-induced IgE and IgG2a production in the mouse; type: in vivo; conditions: i.p. 1-1000 μg/kg, serum study day 18, FIG. 19
Protocol: Methods: Mice (male BALB/c) were sensitized on study days 0 and 7 with antigen (ovalbumin, 10 μg, i.p.) and aluminum hydroxide adjuvant Pierce Alum, i.p.). Mice received SEQ ID NO:2 or SEQ ID NO:7 on study days −2, 0, 5 and 7 (i.e. two days before each sensitization and on the day of sensitization). Mice were bled by cardiac puncture on study day 18. Serum was collected by centrifugation and assayed by ELISA for ovalbumin-specific IgE and IgG2a.

BALB/c mice [2] = type: in vivo; conditions: mouse
guinea pigs = assay: Guinea pig AHR protocol (airway resistance and lung compliance); type: in vivo; conditions: guinea pigs, 10, 30, 100 or 300 μl/kg, i.t.
Protocol: Male guinea pigs were sensitized on study days 0 and 4 with antigen (ovalbumin, 0.5 ml, 1% OVA i.p./s.c.) with aluminum hydroxide adjuvant. Guinea pigs were antigen challenged by exposure to inhaled ovalbumin aerosol, twice each week for two consecutive weeks. The first challenge was on study day 13. CpG ODN or vehicle (saline, 20 μl) were administered intranasally once each week, two days before the first antigen challenge of the week. Airways hyperreactivity was assessed 24 hours after the last antigen challenge by measuring bronchoconstriction (increase in airway resistance) to intravenous methacholine. For each animal, a dose-response curve to methacholine was obtained, and airway reactivity was quantified as the area under the curve.
Method: Guinea pigs were sensitized as described in Example 10. The first challenge was on study day 13. Guinea pigs were given intranasally either carrier (saline), OVA alone, of concentrations of SEQ ID NO:7 of 10 μl/kg, 30 μl/kg, 100 μl/kg, or 300 μl/kg, i.t.
Method: Guinea pigs were sensitized as described in Example 10. The first challenge was on study day 13. Guinea pigs were given intranasally either carrier (saline), OVA alone, of concentrations of SEQ ID NO:2 of 10 μl/kg, 30 μl/kg, 100 μl/kg, or 300 μl/kg, i.t.

mouse splenocytes = assay: Cytokine secretion from mouse splenocytes by SEQ ID NO: 2 and fragments; type: cell-based; conditions: 0.01-10 μg/ml, 36 hours, FIGS. 43-45
Protocol: Spleens were removed from 6 mice (male, BALB/c). The splenocytes from each spleen were separated by pushing gently through a cell sieve (70 μm pore size), and were then pooled. Splenocytes were added to wells of culture plates. 1×10^7 cells in a volume of 900 μl medium were added to each well. Medium was RPMI 1640 containing 10% fetal bovine serum. 100 μl aliquots of CpG ODN solutions in medium were added to each well to give final concentrations in the wells of 0.01-10 μg/ml. After incubation for 36 hours (37 C, 5% CO2 incubator), culture supernatants were collected and assayed for cytokine concentrations using either the Luminex multiplex assay (IFNγ, IP-10, IL-10, IL-6, TNFα) or ELISA (IFNα).
The aim of this study was to investigate the biological activity of selected fragments (putative metabolites) of SEQ ID NO: 2. Activity was determined by measuring the ability of each fragment to induce secretion of TLR9-associated cytokines from mouse splenocytes […].
Stimulation of cytokine secretion by fragments of SEQ ID NO.: 2 is shown in the attached FIGS. 43-45. The oligonucleotides examined are depicted in the Figures by SEQ ID NO and include SEQ ID NO: 15-23. The concentration of oligonucleotide used to produce a particular data point is depicted along the X-axis (μg/ml).

[3] = 100 μg/kg intranasal, both virus-infected and antigen-challenged

T*C_G*T*C_G*T*C_G*T*T*C_G*G*C*G*C_G*C*G*C*C*G (DNA dT*dCdG*dT*dCdG*dT*dCdG*dT*dT*dCdG*dG*dC*dG*dCdG*dC*dG*dC*dC*dG) [SEQ ID NO: 2, Semi-soft class C CpG ODN]
max SI (maximal stimulation index) (human TLR9): 20 | production of antigen (ovalbumin)-specific IgE (BALB/c mice [1]): suppressed | production of antigen (ovalbumin)-specific IgG2a (BALB/c mice [1]): potentiated | antigen-induced eosinophilia (BALB/c mice [2]; 100 μg/kg intranasal, antigen challenge alone, FIG. 20): significantly suppress | exacerbated accumulations of neutrophils and mononuclear cells (BALB/c mice [2]; [3]): both suppressed | exacerbated airways inflammation (BALB/c mice [2]; [3]): significantly suppressed | virus-induced neutrophilia (BALB/c mice [2]; 100 μg/kg intranasal, virus infection alone, FIG. 20): did not suppress | loss of body weight (BALB/c mice [2]; both virus-infected and antigen-challenged): significantly suppressed | AUC-resistance (airway reactivity, area under the dose-response curve) (guinea pigs): dose-dependent reduction | induction of TLR9-associated cytokines IFNα, IFNγ, IP-0, IL-6, IL-10 and TNFα (mouse splenocytes): induced
